From a melting point compilation (Tetko et al.; mined from patent text by program, amines drawn as free bases though some values may be those of a salt)

melting point [°C] | Compound
91 to 93 | c1ccc(CN2C[C@@H]3Cc4cc5ccccc5n4C[C@@H]3C2)cc1 (relative stereo)
113 to 114 | COc1cc(C(=O)c2c(N)sc3c2CCN(Cc2ccccc2)C3)ccc1OC(C)C
115 | CCNc1c(O)ccc(N(CCO)CCO)c1[N+](=O)[O-]
99 to 100 | Brc1cccc(Br)c1I
174 to 180 | O=C(O)c1cn2c3c(c(N4CCCC4)c(F)cc3c1=O)CCN2Cc1ccccc1
70 | CCOC(=O)COc1c2c3c(ccnc3c3ccccc13)CCC2
254 to 256 | NC(=O)c1ccc2[nH]cc(CCN3C(=O)c4ccccc4C3=O)c2c1
212 to 214 | CNC(=O)Nc1scc(C(C)(C)C)c1C#N
93 to 95 | COC(=O)C(=Cc1cc(OC)cc(OC)c1)c1ccc(Oc2ccc(CO)cc2)cc1
214 to 215 | NC(=O)c1cccc2c1C1(COc3cc4c(cc31)OCCO4)CN2Cc1ccccn1 (stereo unspecified)
179 to 181 | Cn1cnc(COc2nc3c(cc2-c2cccs2)nnn3-c2ccccc2F)n1
185 to 187 | N#Cc1cnn(-c2c(Cl)cc(SC(F)(F)F)cc2Cl)c1N
217 to 222 | CCOC(=O)c1c(C)nc2c(cnn2CCC(C)CC)c1N (stereo unspecified)
99 to 100 | CN1CC[C@H](c2ccc(Cl)cc2)[C@@H](O)C1 (racemic)
110 to 112 | COCC(=O)c1ccc(Br)nc1
65 to 67 | CC(O)=C(C#N)C(=O)c1ccc(F)cc1
255 | COc1cc(C)c2[nH]ccc2c1C(N)(c1nc2cc(C#N)ccc2[nH]1)C(F)(F)F (single isomer, unassigned; (-))
180 | OC1CC2OCCN3CCC4c5ccccc5N1C4C23 (stereo unspecified)
170 to 171 | Cc1cccnc1-c1ccc2ccnc(N)c2n1
160 to 162 | NCCCCNc1ncc2ncnc(Nc3ccc(F)c(Cl)c3)c2n1
91 to 92 | Cc1ccc(-c2nc(COc3ccc(CCCCn4ccnc4)cc3)co2)o1

melting point [°C] | Compound
178 to 179 | CC(=O)c1cccc(-c2ccc3c(c2)C(C)(C)OC(=O)N3)c1
140 to 142 | Oc1nc(-c2ccc(F)cc2)c(CCN2CCC(=Cc3cccc(F)c3)CC2)s1
216 | O=c1[nH]c2c(n3ccnc13)C(NS(=O)(=O)c1ccccc1)c1ccccc1-2 (stereo unspecified)
160 to 163 | CN(C)c1c(F)c(F)c(F)c2c1c(=O)cc(C(=O)O)n2C1CC1
99.5 to 101 | Cc1cn(C(C)C(=O)N(C)C)nc1-c1ccc(Cl)cc1 (stereo unspecified)
126 to 127 | CCc1noc(-c2ncn(-c3cccc(Oc4ccc([N+](=O)[O-])cc4)c3)c2COC)n1
111 to 113 | CC(=O)OCNC(=O)c1cc(C)c(C(c2cc(F)ccc2F)S(=O)(=O)c2ccc(F)cc2)cn1 (stereo unspecified)
181 | O=c1c2[nH]cnc2n(CC2CCCCC2)c(=O)n1CC1CC1
127 to 128 | COc1ccc(NC2=NN(c3cccc(C(F)(F)F)c3)CC2)cc1
160 to 162 | CCN(CC)CCNC(=O)c1cc(Cl)c(N)cc1OCC(=O)N1CCCC1
152 to 154 | NC(=O)Cc1ccc2c(c1)C(=O)Cc1ccccc1O2
188 to 191 | NS(=O)(=O)c1ccc(-n2nc(C(=O)O)cc2-c2ccccc2)cc1
> 280 | CCn1c(=O)c2[nH]c(/C=C/c3ccc(OC)c(Br)c3)nc2n(CC)c1=O
130 to 131 | Cc1nccc(CO)c1OCc1ccccc1
153 to 156 | CCC12CCC3=C(CCc4cc(O)ccc43)C1=CCC2=O (stereo unspecified)
87 | C=CCOc1ccc(C(=O)Oc2ccc(O[Si](C)(C)C)cc2)cc1
182 to 185 | CCOC(=O)C1(n2cc(Cl)cc2C(=O)C(Cl)(Cl)Cl)CC(=O)NC1=O (stereo unspecified)
146 to 148 | CCCCCNC(=O)[C@@H](Cc1ccc(OCC(=O)O)c(C(=O)O)c1)NC(=O)Cc1ccccc1OC
199 to 201 | Nc1c(F)c(F)[nH]c(=O)c1F
78 to 80 | CNC(=C[N+](=O)[O-])NCCCCCCCCCCCCNC(=C[N+](=O)[O-])NCCSCc1ccc(CN(C)C)o1
80 to 83 | CCC(=C(c1ccccc1)c1ccc(C=CCO)cc1)c1ccccc1

melting point [°C] | Compound
222 to 224 | O=c1cc(-c2ccccc2)c2c(OCc3nnn[nH]3)cc(OCc3nnn[nH]3)cc2o1
84 to 86 | CCC(=O)NCC1CC1c1cccc2nscc12 (stereo unspecified)
112 to 113 | COc1ccc2sc(=O)n(C(C)=O)c2c1
195 to 196 | CC(C(N)=O)c1ccc2c(c1)C(=O)Cc1c(Cl)cccc1S2 (stereo unspecified)
207 to 209 | O=C1CCC(N2C(=O)c3cccc(NCc4cccc(Cl)c4)c3C2=O)C(=O)N1 (stereo unspecified)
266 to 267 | COc1cccc(OC)c1C(=O)Nc1cc(C(C)(C)C)ns1
108 | O=[N+]([O-])c1ccc(Cl)cc1NC1Cc2ccccc2C1
226 to 229 | CN1CCN(C2CCN(c3ccc(Nc4ncc5cc6ccccc6n5n4)cc3)CC2)CC1
167 to 168 | NC(=O)Cc1ccc(C2CCCCC2)cc1
74 to 76 | CCOP(=O)(CNc1cc(Oc2ccc(C(F)(F)F)cn2)ccc1[N+](=O)[O-])OCC
30 to 32 | [N-]=[N+]=NCc1cc(C(F)(F)F)cc(C(F)(F)F)c1
84 to 85 | CCOC(=O)C(CCc1ccccc1)=NO
203 to 205 | COc1ccc(C(=O)Nc2ccccc2)cc1NCc1cccc(Cl)c1
33 to 34 | COC(=O)C(=O)NC(=O)CC(F)=C(F)F
85 | O=C(C(=O)c1ccc(Cl)cc1Cl)c1ccncc1
180 to 182 | NC(=O)c1cnc2ccsc2c1Cl
217 to 220 | Cc1ccc(C(=O)NCCO)c(Nc2ccc3cn[nH]c3c2)n1
159 to 162 | S=C(Nc1ccc(Cl)c(Cl)c1)NC1CCCCC1
85 to 89 | N#Cc1ccc(CBr)c([N+](=O)[O-])c1
144 | COC(=O)c1cccc(-c2cn(C)cc(-n3cccn3)c2=O)c1
103 | COc1ccc(-c2ccc(C3C(CCC(O)c4ccc(F)cc4)C(=O)N3c3ccc(F)cc3)cc2)cc1 (stereo unspecified)

melting point [°C] | Compound
172 | Cc1cccc(-c2sc(N)nc2-c2ccnc(-c3ccc(OCC(=O)N4CCOCC4)cc3)c2)n1
162 to 163 | NC(=O)/C=C1/c2cc(F)ccc2CC1O[N+](=O)[O-] (stereo unspecified)
112 | CCCCCCCCCCCCCCCCNc1ccc(C(=O)OCC(O)CO)cc1 (stereo unspecified)
120 to 121 | CCOC(=O)C(=O)Nc1c([N+](=O)[O-])cc(C(C)=O)c2c1CCCC2
161 | NC(=S)Nc1ccccc1O
185 to 187 | OCCn1cnc2c(Cl)nc3ccccc3c21
156 to 158 | O=C(Nc1ccc(C2(O)CCN(C(=O)OCc3ccccc3)CC2)cc1)OCc1ccccc1
126 | CC(=O)c1ccc2c(c1)C(=O)C=C(C)C2=O
136 | O=C(O)Cc1ccc2c(c1)C(c1ccccc1)C(=O)O2 (stereo unspecified)
115 to 116 | CCC(CC)n1nc(-c2ccc(OC)cc2OC)c2cccc(C(F)(F)F)c21
250 to 252 | C[Si](C)(C)C#Cc1cc2ccc(-n3nc4ccc5ccccc5c4n3)cc2oc1=O
249 to 251 | O=C(c1ccc(F)cc1)c1nccc(O)c1O
142 to 144 | FC(F)(F)c1ccc(/C=C/C=C/[C@H]2CC[C@H](SCc3ccc(Cl)cc3)CC2)cc1
90 to 92 | Cc1ccc(NN)c2c1CC(C)O2 (stereo unspecified)
119 to 121 | CCCCCCSCCSCCSc1nc2nc(C)cc(O)n2n1
87 to 89 | BrCc1nc2cc(OCc3ccccc3)ccc2s1
242 to 243 | Cc1cncc(-c2nc(C(F)(F)F)cn2-c2ccc(S(N)(=O)=O)cc2)c1
119 to 120 | CCc1cnc(CSc2cnc(N)s2)o1

Compound | melting point [°C]
O=CNc1cccc(-c2ccnc3c(C(=O)c4cccs4)cnn23)c1 | 233 to 236
OCc1cn2c(n1)CN=C(c1ccccn1)c1cc(I)ccc1-2 | 206 to 207
CCC(C)(Cc1cn(C)c2ccc(OC)cc12)[N+](=O)[O-] (stereo unspecified) | 95 to 96
O=C1[C@@H]2[C@H](O)CCN2C(=O)N1c1ccc([N+](=O)[O-])c2ccccc12 (relative stereo) | 255 to 257
Cc1cccc(C(=O)N2CC2C#N)n1 (stereo unspecified) | 120 to 122
